Patent US20130065818A1, “Arylamide Compounds And Compositions And Uses Thereof” (POLYMEDIX, priority 2006, published 2013)
Several values for one entry are separate records, joined by “and”; a condition that tells them apart may be missing. Equal entries are not always repeated. Entries after “also recorded” stand apart in the source; their conditions may differ.

What was measured:
[1] = tested on: fluoroquinolone-resistant, methicillin-resistant Staphylococcus aureus (K950); experiment: NZW rabbit keratitis model, corneal colony counts; format: in vivo; settings: for Log10 CFU/ml, Median / Log10 CFU/ml Maximum / Log10 CFU/ml Minimum / Log10 CFU/ml, Mean: 6 corneas; for Mean Rank, Kruskal-Wallis ANOVA with Duncan Multiple Comparisons Test - Log10 CFU/ml / Statistical comparison of colony counts between groups (< = significantly fewer colony counts): P = 0.05; for Log10 CFU/ml Maximum / Log10 CFU/ml Minimum / Log10 CFU/ml, Mean: Descriptive Statistics; for Reduction of colony counts compared with the Saline Control: corneal epithelium intact or removed; for Log10 CFU/ml: individual corneas (Row 1-6; K-3, K-4); for CFU/ml: individual corneas (Row 1-6; Ker-3, Ker-4)
Outline: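 NZW rabbit corneas, with or without intact epithelia, infected with fluoroquinolone-resistant MRSA; right eyes left untreated. Topical treatments included 1%, 0.5% or 0.25% Oligomer 2 (0.25% ± 0.005% benzalkonium chloride), 0.25% Oligomer 4 ± 200 μM Farnesol, 200 μM Farnesol alone, and 5% vancomycin; read-out corneal colony counts.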

[2] = Draize ocular toxicity scoring, NZW rabbit ocular toxicity model; format: in vivo; parameters: key to MMTS / Score (Draize total): Draize total score of cornea, iris and conjunctivae; maximum 110; III. B. Chemosis / I. A. Cornea opacity / I. B. Area of cornea involved / II. A. Iris / III. A. Conjunctivae redness / III. C. Discharge: scale not given here
Procedure: The ocular toxicity of several concentrations of Oligomer 2, using the Draize ocular toxicity scoring system, in the NZW rabbit ocular toxicity model was carried out.
(§1) Rabbits were treated in both eyes with (37 μl) topical drops every 30 minutes for 3 hours (7 total doses). One rabbit was treated with Tris-Buffered Saline and served as a negative control. Rabbits were evaluated in a masked fashion for ocular toxicity by an ophthalmologist with specialty training in corneal and external disease. Ocular toxicity was evaluated using the Draize scoring system after treatment on Day 0 and on Day 3 post treatment for any delayed toxicity. (Draize et al., J. Pharmacol. Exp. Ther., 1944, 82, 377-390).
A brief summary of the Draize scoring system for ocular lesions is provided below
Total Maximum Score: 110 represents the sum of all scores obtained for the cornea, iris and conjunctivae.
The ocular toxicity of several formulations of Oligomer 4 with and without farnesol, using the Draize ocular toxicity scoring system, in the NZW rabbit ocular toxicity model was carried out.
as §1, with “external disease 30 minutes after the final dose.” for “external disease.”, “system (see above)” for “system”, “Day 2” for “Day 3”, “toxicity.” for “toxicity. (Draize et al., J. Pharmacol. Exp. Ther., 1944, 82, 377-390).”

[3] = 100 μM Farnesol in 1% PG and TBS, Day 0
[4] = 100 μM Farnesol in 1% PG and TBS, Day 0, per eye
[5] = 100 μM Farnesol in 1% PG and TBS, Day 2
[6] = 100 μM Farnesol in 1% PG and TBS, Day 2, per eye
[7] = 100 μM in 1% Propylene Glycol (PG) and TBS, Day 0
[8] = 100 μM in 1% Propylene Glycol (PG) and TBS, Day 2
[9] = 200 μM Farnesol in 1% PG and TBS, Day 0
[10] = 200 μM Farnesol in 1% PG and TBS, Day 0, per eye
[11] = 200 μM Farnesol in 1% PG and TBS, Day 2
[12] = 200 μM Farnesol in 1% PG and TBS, Day 2, per eye
[13] = 200 μM in 1% Propylene Glycol (PG) and TBS, Day 0
[14] = 200 μM in 1% Propylene Glycol (PG) and TBS, Day 2

## CC(C)=CCCC(C)=CCCC(C)=CCO [Farnesol]
[1]; Abraded Epithelium
  Log10 CFU/ml, Median: 6.849 Log10 CFU/ml and 6.8489 Log10 CFU/ml
  Mean Rank, Kruskal-Wallis ANOVA with Duncan Multiple Comparisons Test - Log10 CFU/ml: 23.5000
  Statistical comparison of colony counts between groups (< = significantly fewer colony counts): PMX = P + F < ONSET < FARN = CON
  Log10 CFU/ml Maximum: 6.916 Log10 CFU/ml
  Log10 CFU/ml Minimum: 6.109 Log10 CFU/ml
  Log10 CFU/ml, Mean: 6.626 Log10 CFU/ml
  Log10 CFU/ml: 6.875 Log10 CFU/ml and 6.109 Log10 CFU/ml and 6.146 Log10 CFU/ml and 6.889 Log10 CFU/ml and 6.823 Log10 CFU/ml and 6.916 Log10 CFU/ml
  CFU/ml: 7500000 CFU/ml and 1285000 CFU/ml and 1400000 CFU/ml and 7750000 CFU/ml and 6650000 CFU/ml and 8250000 CFU/ml
[1]; Intact Epithelium
  Log10 CFU/ml, Median: 7.3000 Log10 CFU/ml
  Log10 CFU/ml Maximum: 7.6551 Log10 CFU/ml
  Log10 CFU/ml Minimum: 7.1818 Log10 CFU/ml
  Log10 CFU/ml, Mean: 7.3624 Log10 CFU/ml
  Mean Rank, Kruskal-Wallis ANOVA with Duncan Multiple Comparisons Test - Log10 CFU/ml: 22.1667
  Statistical comparison of colony counts between groups (< = significantly fewer colony counts): ONSET = PMX = P + F < FARN = CON
  Log10 CFU/ml: 7.182 Log10 CFU/ml and 7.259 Log10 CFU/ml and 7.479 Log10 CFU/ml and 7.655 Log10 CFU/ml and 7.27 Log10 CFU/ml and 7.33 Log10 CFU/ml
  CFU/ml: 15200000 CFU/ml and 18150000 CFU/ml and 30100000 CFU/ml and 45200000 CFU/ml and 18600000 CFU/ml and 21400000 CFU/ml
[1]; Abraded vs. Intact Epithelium, Mann-Whitney Test
  Effect of Abraded Epithelium on Effectiveness of Each Test Solution (colony counts, < = significantly fewer): FARN-AE < FARN-IE; also recorded: Abraded < Intact
[1]; Example 11, Mann-Whitney test, < = significantly fewer colony counts
  Effect of Abraded Epithelium on Effectiveness of Each Test Solution (colony counts, abraded vs. intact): Abraded = Intact
[1]; IE Log vs AE Log of the same test solution
  Point estimate for ETA1-ETA2 (Mann-Whitney, Log10 CFU/ml), Intact minus Abraded Epithelium: Point estimate for ETA1-ETA2 is 0.5964
[1]; Ker-3 (Example 11), abraded epithelium, 21 doses
  Statistical comparison of corneal colony counts (< = significantly fewer colony counts): PMX═P+F═ONSET<FARN═CON
[1]; Ker-3 (Example 11), intact epithelium, 21 doses
  Statistical comparison of corneal colony counts (< = significantly fewer colony counts): ONSET=PMX═P+F<FARN═CON
[1]; Ker-3
  Reduction of colony counts compared with the Saline Control: NOT effective
[1]; Ker-4
  Colony counts, corneal epithelium removed compared with intact epithelium: significantly fewer colony counts in eyes with the corneal epithelium removed
  Reduction of colony counts compared with the Saline Control: not effective
[1]; Ker-4 (Example 12), abraded epithelium
  Statistical comparison of corneal colony counts (< = significantly fewer colony counts): PMX═P+F<ONSET<FARN═CON
[1]; Ker-4 (Example 12), intact epithelium
  Statistical comparison of corneal colony counts (< = significantly fewer colony counts): ONSET=PMX═P+F<FARN═CON
[2]; [3]
  Classification of eye irritation: Non-Irritating
  MMTS: 0.0
  MMTS classification symbol: N (0.0-0.5 Non-Irritating)
[2]; [4]
  I. A. Cornea opacity: 0
  I. B. Area of cornea involved: 0
  I. Tot (cornea, A × B × 5): 0
  II. A. Iris: 0
  II. Tot (iris, A × 5): 0
  III. A. Conjunctivae redness: 0
  III. B. Chemosis: 0
  III. C. Discharge: 0
  III. Tot (conjunctivae, (A + B + C) × 2): 0
  Score (Draize total): 0
[2]; [5]
  MMTS: 1.5
  MMTS classification symbol: PN (0.6-2.5 Practically Non-Irritating)
[2]; [6]
  I. A. Cornea opacity: 0
  I. B. Area of cornea involved: 0
  I. Tot (cornea, A × B × 5): 0
  II. A. Iris: 0
  II. Tot (iris, A × 5): 0
  III. A. Conjunctivae redness: 0
  III. B. Chemosis: 0
[2]; [7]
  MMTS: 0.0
  MMTS classification: N (0.0-0.5 Non-Irritating)
[2]; [8]
  MMTS: 1.5
  MMTS classification: PN (0.6-2.5 Practically Non-Irritating)
[2]; [9]
  Classification of eye irritation: Non-Irritating
  MMTS: 0.5
  MMTS classification symbol: N (0.0-0.5 Non-Irritating)
[2]; [10]
  I. A. Cornea opacity: 0
  I. B. Area of cornea involved: 0
  I. Tot (cornea, A × B × 5): 0
  II. A. Iris: 0
  II. Tot (iris, A × 5): 0
  III. A. Conjunctivae redness: 0
  III. B. Chemosis: 0
[2]; [11]
  Classification of eye irritation: Non-Irritating
  MMTS: 0.5
  MMTS classification symbol: N (0.0-0.5 Non-Irritating)
[2]; [12]
  I. A. Cornea opacity: 0
  I. B. Area of cornea involved: 0
  I. Tot (cornea, A × B × 5): 0
  II. A. Iris: 0
  II. Tot (iris, A × 5): 0
  III. A. Conjunctivae redness: 0
  III. B. Chemosis: 0
[2]; [13]
  MMTS: 0.5
  MMTS classification: N (0.0-0.5 Non-Irritating)
[2]; [14]
  MMTS: 0.5
  MMTS classification: N (0.0-0.5 Non-Irritating)
